Reference: patent publication US10335409B2 (priority 2012, dated 2019)
Where two headings read alike, the source gives them in different places.

What was measured:
Assay type in all cases: cell-based, hepatitis C virus
[1] = test system: genotype 1a (H77) stable HCV replicon in Huh-7-derived cells; test: Stable subgenomic HCV replicon EC50, genotype 1a (Renilla luciferase); conditions: Hepatitis C virus, stable replicon genotype 1a, 72 h, read-out: EC50 1A RLUC
Procedure, shortened: (§1)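 Compounds, three-fold diluted, were applied to Huh-7-derived cells harbouring luciferase replicons (genotype 1a H77, 1b Con1, 2a JFH-1, 4a ED43, with strain-specific adaptive mutations). Seventy-two hours later, intracellular replication was gauged by Renilla luciferase activity and EC50 derived by regression.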

[2] = test system: genotype 1b (Con1) stable HCV replicon in Huh-7-derived cells; test: Stable subgenomic HCV replicon EC50, genotype 1b (Renilla luciferase); conditions: Hepatitis C virus, stable replicon genotype 1b, 72 h, read-out: EC50 1B RLUC
Procedure, shortened: as §1

[3] = test system: genotype 3a (S52) stable HCV replicon in Huh-7-derived cells; test: Stable subgenomic HCV replicon EC50, genotype 3a (Renilla luciferase); conditions: Hepatitis C virus, 72 h, read-out: EC50 3A RLUC
[4] = test system: genotype 1b (Con1) wild type transient HCV replicon in Huh-7-derived cells; test: Transient-transfected HCV replicon EC50, genotype 1b wild type; conditions: Hepatitis C virus, 72 h, transient-transfected replicon genotype 1b wild type, read-out: EC50 1B WT
[5] = test system: genotype 1a NS3/4a protease inhibitor resistant variant R155K transient HCV replicon in Huh-7-derived cells; test: Transient-transfected HCV replicon EC50, genotype 1a R155K; conditions: Hepatitis C virus, 72 h, read-out: EC50 1A R155K, transient-transfected replicon genotype 1a R155K resistant variant, 72 h
[6] = test system: genotype 2a (JFH-1) stable HCV replicon in Huh-7-derived cells; test: Stable subgenomic HCV replicon EC50, genotype 2a (Renilla luciferase); conditions: Hepatitis C virus, stable replicon genotype 2a, 72 h, read-out: EC50 2A RLUC
Procedure, shortened: as §1

[7] = test system: genotype 1b NS3/4a protease inhibitor resistant variant D168A transient HCV replicon in Huh-7-derived cells; test: Transient-transfected HCV replicon EC50, genotype 1b D168A; conditions: Hepatitis C virus, 72 h, read-out: EC50 1B D168A, transient-transfected replicon genotype 1b D168A resistant variant, 72 h
[8] = test system: genotype 3a (S52) wild type transient HCV replicon in Huh-7-derived cells; test: Transient-transfected HCV replicon EC50, genotype 3a wild type; conditions: Hepatitis C virus; transient-transfected replicon genotype 3a wild type, 72 h; read-out: EC50 3A WT
[9] = test system: genotype 4a (ED43) stable HCV replicon in Huh-7-derived cells; test: Stable subgenomic HCV replicon EC50, genotype 4a (Renilla luciferase); conditions: Hepatitis C virus, 72 h, read-out: EC50 4A RLUC
Procedure, shortened: as §1

[10] = test system: genotype 1a (H77) wild type transient HCV replicon in Huh-7-derived cells; test: Transient-transfected HCV replicon EC50, genotype 1a wild type; conditions: Hepatitis C virus, 72 h, transient-transfected replicon genotype 1a wild type, read-out: EC50 1A WT

For `CC[C@@H]1[C@@H]2CN(C(=O)[C@H](C(C)(C)C)NC(=O)O[C@@]3(C)C[C@@H]3CCCCC(F)(F)c3nc4ccc(OC)cc4nc3O2)[C@@H]1C(=O)N[C@]1(C(=O)NS(=O)(=O)C2(C)CC2)C[C@H]1C(F)F` [Example 64, (1aS,5S,8S,9S,10R,22aS)-5-tert-butyl-N-[(1R,2R)-2-(difluoromethyl)-1-{[(1-methylcyclopropyl)sulfonyl]carbamoyl}cyclopropyl]-9-ethyl-18,18-difluoro-14-methoxy-1a-methyl-3,6-dioxo-1,1a,3,4,5,6,9,10,18,19,20,21,22,22a-tetradecahydro-8H-7,10-methanocyclopropa[18,19][1,10,3,6]dioxadiazacyclononadecino[11,12-b]quinoxaline-8-carboxamide], the EC50 [1] was 100 nM, the EC50 [2] was 38 nM and the EC50 [3] was 671 nM. It also gave an EC50 [4] of 17 nM, an EC50 [5] of 50 nM and an EC50 [6] of 48 nM. The EC50 [7] was 104 nM, the EC50 [8] was 256 nM and the EC50 [9] was 34 nM. For the same molecule, the EC50 [10] was 37 nM.
With `COc1ccc2nc3c(nc2c1)O[C@H]1CN(C(=O)[C@H](C(C)(C)C)NC(=O)O[C@@]2(C)C[C@@H]2CCCCC3(F)F)[C@H](C(=O)N[C@]2(C(=O)NS(=O)(=O)C3(C)CC3)C[C@H]2C(F)F)[C@@H]1C` [Example 77, (1 aS,5S,8S,9S,10R,22aS)-5-tert-butyl-N-[(1R,2R)-2-(difluoromethyl)-1-{[(1-methylcyclopropyl)sulfonyl]carbamoyl}cyclopropyl]-18,18-difluoro-14-methoxy-1a,9-dimethyl-3,6-dioxo-1,1a,3,4,5,6,9,10,18,19,20,21,22,22a-tetradecahydro-8H-7,10-methanocyclopropa[18,19][1,10,3,6]dioxadiazacyclononadecino[11,12-b]quinoxaline-8-carboxamide] the EC50 [1] was 23 nM, the EC50 [2] was 12 nM and the EC50 [3] was 741 nM. The EC50 [4] was 5 nM, the EC50 [5] was 34 nM and the EC50 [6] was 29 nM. The EC50 [7] was 80 nM, the EC50 [8] was 472 nM and the EC50 [9] was 16 nM. It also gave an EC50 [10] of 21 nM.
Molecule `CC[C@@H]1[C@@H]2CN(C(=O)[C@H](C(C)(C)C)NC(=O)O[C@]3(C)CCC[C@H]3CCCCCc3nc4ccc(OC)cc4nc3O2)[C@@H]1C(=O)N[C@]1(C(=O)NS(=O)(=O)C2(C)CC2)C[C@H]1CC` [Example 56, (3aR,7S,10S,11S,12R,24aR)-7-tert-butyl-11-ethyl-N-[(1R,2R)-2-ethyl-1-{[(1-methylcyclopropyl)sulfonyl]carbamoyl}cyclopropyl]-16-methoxy-3a-methyl-5,8-dioxo-1,2,3,3a,5,6,7,8,11,12,20,21,22,23,24,24a-hexadecahydro-10H-9,12-methanocyclopenta[18,19][1,10,3,6]dioxadiazacyclononadecino[11,12-b]quinoxaline-10-carboxamide] has an EC50 [1] of 41 nM, an EC50 [2] of 37 nM and an EC50 [3] of 1030 nM. For the same molecule, the EC50 [4] was 59 nM, the EC50 [5] was 168 nM and the EC50 [6] was 57 nM. For the same molecule, the EC50 [7] was 252 nM, the EC50 [8] was 226 nM and the EC50 [9] was 57 nM. It also gave an EC50 [10] of 63 nM.
Work on `COc1ccc2nc3c(nc2c1)O[C@H]1CN(C(=O)[C@H](C(C)(C)C)NC(=O)O[C@@H]2C[C@@H]4C[C@@H]4[C@H]2CCCCC3(F)F)[C@H](C(=O)N[C@]2(C(=O)NS(=O)(=O)C3(C)CC3)C[C@H]2C(F)F)[C@@H]1C` [Example 81, (1aS,2aR,6S,9S,10S,11R,23aR,23bS)-6-tert-butyl-N-[(1R,2R)-2-(difluoromethyl)-1-{[(1-methylcyclopropyl)sulfonyl]carbamoyl}cyclopropyl]-19,19-difluoro-15-methoxy-10-methyl-4,7-dioxo-1a,2,2a,4,5,6,7,10,11,19,20,21,22,23,23a,23b-hexadecahydro-1H,9H-8,11-methanocyclopropa[4′,5′]cyclopenta[1′,2′:18,19][1,10,3,6]dioxadiazacyclononadecino[11,12-b]quinoxaline-9-carboxamide] yielded an EC50 [1] of 4 nM, an EC50 [2] of 3.6 nM and an EC50 [3] of 12 nM. The EC50 [4] was 2.4 nM, the EC50 [5] was 2.5 nM and the EC50 [6] was 3.6 nM. It also gave an EC50 [7] of 2.7 nM, an EC50 [8] of 4.3 nM and an EC50 [9] of 4.3 nM. The EC50 [10] was 3.7 nM.
For `CC[C@@H]1[C@@H]2CN(C(=O)[C@H](C(C)(C)C)NC(=O)O[C@]3(C)CCC[C@H]3CCCCCc3nc4ccc(OC)cc4nc3O2)[C@@H]1C(=O)N[C@]1(C(=O)NS(=O)(=O)C2CC2)C[C@H]1CC` [Example 51], the EC50 [1] was 40 nM, the EC50 [2] was 39 nM and the EC50 [3] was 1220 nM. It also gave an EC50 ([4]; GETYPE1B) of 24 nM, an EC50 ([5]; GETYPE1A) of 92 nM and an EC50 [6] of 103 nM. For the same molecule, the EC50 ([7]; GETYPE1B) was 318 nM, the EC50 [8] was 265 nM and the EC50 [9] was 30 nM. For the same molecule, the EC50 ([10]; GETYPE1A) was 28 nM.
With `C=C[C@@H]1C[C@]1(NC(=O)[C@@H]1[C@H](CC)[C@@H]2CN1C(=O)[C@H](C(C)(C)C)NC(=O)O[C@@H]1C[C@H]1CCCCC(F)(F)c1nc3ccc(OC)cc3nc1O2)C(=O)NS(=O)(=O)C1CC1` [Example 92, (1aR,5S,8S,9S,10R,22aR)-5-tert-butyl-N-{(1R,2S)-1-[(cyclopropylsulfonoyl)carbamoyl]-2-ethenylcyclopropyl}-9-ethyl-18,18-difluoro-14-methoxy-3,6-dioxo-1,1a,3,4,5,6,9,10,18,19,20,21,22,22a-tetradecahydro-8H-7,10-methanocyclopropa[18,19][1,10,3,6]dioxadiazacyclononadecino[11,12-b]quinoxaline-8-carboxamide] the EC50 [1] was 3.3 nM, the EC50 [2] was 3.2 nM and the EC50 [3] was 58 nM. It also gave an EC50 [4] of 1.7 nM, an EC50 [5] of 3 nM and an EC50 [6] of 4.6 nM. It also gave an EC50 [7] of 5.3 nM, an EC50 [8] of 8 nM and an EC50 [9] of 3.2 nM. The EC50 [10] was 3 nM.
Work on `CC[C@@H]1[C@@H]2CN(C(=O)[C@H](C(C)(C)C)NC(=O)O[C@@H]3C[C@H]3CCCCC(F)(F)c3nc4ccc(OC(F)F)cc4nc3O2)[C@@H]1C(=O)N[C@]1(C(=O)NS(=O)(=O)C2(C)CC2)C[C@H]1C(F)F` [Example 85, (1aR,5S,8S,9S,10R,22aR)-5-tert-butyl-14-(difluoromethoxy)-N-[(1R,2R)-2-(difluoromethyl)-1-{[(1-methylcyclopropyl)sulfonyl]carbamoyl}cyclopropyl]-9-ethyl-18,18-difluoro-3,6-dioxo-1,1a,3,4,5,6,9,10,18,19,20,21,22,22a-tetradecahydro-8H-7,10-methanocyclopropa[18,19][1,10,3,6]dioxadiazacyclononadecino[11,12-b]quinoxaline-8-carboxamide] yielded an EC50 [1] of 16 nM, an EC50 [2] of 17 nM and an EC50 [3] of 304 nM. For the same molecule, the EC50 [4] was 7 nM, the EC50 [5] was 22 nM and the EC50 [6] was 7.7 nM. The EC50 [7] was 57 nM, the EC50 [8] was 101 nM and the EC50 [9] was 9.2 nM. The EC50 [10] was 12 nM.
In the case of `C[C@@H]1[C@@H]2CN(C(=O)[C@H](C(C)(C)C)NC(=O)O[C@@H]3C[C@@H]4C[C@@H]4[C@H]3CC/C=C/Cn3c(nc4cc(Cl)ccc4c3=O)O2)[C@@H]1C(=O)N[C@]1(C(=O)NS(=O)(=O)C2(C)CC2)C[C@H]1C(F)F` [Example 96, (1aS,2aR,6S,9S,10S,11R,21E,24aR,24bS)-6-tert-butyl-15-chloro-N-[(1R,2R)-2-(difluoromethyl)-1-{[(1-methylcyclopropyl)sulfonyl]carbamoyl}cyclopropyl]-10-methyl-4,7,18-trioxo-1a,2,2a,4,5,6,7,10,11,20,23,24,24a,24b-tetradecahydro-1H,9H,18H-8,11-methanocyclopropa[4′,5′]cyclopenta[1′,2′:18,19][1,10,3,6,12]dioxatriazacyclononadecino[11,12-b]quinazoline-9-carboxamide], the EC50 [1] is reported as 12 nM, the EC50 [2] is reported as 11 nM and the EC50 [3] is reported as 77 nM. It also gave an EC50 [4] of 4.1 nM, an EC50 [5] of 3.8 nM and an EC50 [6] of 5.4 nM. The EC50 [7] was 3.6 nM, the EC50 [8] was 12 nM and the EC50 [9] was 8.9 nM. The EC50 [10] was 5.2 nM.
